Values joined by “and” are separate entries in the source; they are usually repeats but may differ in a detail not shown here. Identical values can stand only once.
Experiment: xn = mol fraction of the nth substance listed
Details: 100 kPa, Liquid, Vibrating tube method

CCC(O)CC [3-pentanol] + C[N+](=O)[O-]
Details	mass density
291.86 K, x1 = 0.325	974.982 kg/m3
291.86 K, x1 = 0.363	961.613 kg/m3
291.86 K, x1 = 0.407	946.991 kg/m3
291.86 K, x1 = 0.488	922.68 kg/m3
291.86 K, x1 = 0.546	907.193 kg/m3
291.86 K, x1 = 0.587	896.735 kg/m3
291.95 K, x1 = 0.246	1005.58 kg/m3
291.95 K, x1 = 0.275	993.548 kg/m3
291.95 K, x1 = 0.3	984.145 kg/m3
291.95 K, x1 = 0.325	974.857 kg/m3
291.95 K, x1 = 0.338	970.048 kg/m3
291.95 K, x1 = 0.363	961.485 kg/m3
291.95 K, x1 = 0.382	954.991 kg/m3
291.95 K, x1 = 0.407	946.861 kg/m3
291.95 K, x1 = 0.414	944.587 kg/m3
291.95 K, x1 = 0.486	923.287 kg/m3
291.95 K, x1 = 0.488	922.559 kg/m3
291.95 K, x1 = 0.573	900.26 kg/m3
291.95 K, x1 = 0.587	896.628 kg/m3
291.95 K, x1 = 0.615	889.805 kg/m3
291.96 K, x1 = 0.266	997.055 kg/m3
291.96 K, x1 = 0.546	907.079 kg/m3
292.05 K, x1 = 0.246	1005.45 kg/m3
292.05 K, x1 = 0.275	993.426 kg/m3
292.05 K, x1 = 0.382	954.866 kg/m3
292.05 K, x1 = 0.414	944.459 kg/m3
292.05 K, x1 = 0.486	923.167 kg/m3
292.05 K, x1 = 0.573	900.153 kg/m3
292.05 K, x1 = 0.615	889.701 kg/m3
292.06 K, x1 = 0.266	996.934 kg/m3
292.06 K, x1 = 0.3	984.022 kg/m3
292.06 K, x1 = 0.325	974.734 kg/m3
292.06 K, x1 = 0.338	969.925 kg/m3
292.06 K, x1 = 0.363	961.36 kg/m3
292.06 K, x1 = 0.407	946.736 kg/m3
292.06 K, x1 = 0.488	922.439 kg/m3
292.06 K, x1 = 0.546	906.966 kg/m3
292.06 K, x1 = 0.587	896.519 kg/m3
292.15 K, x1 = 0.246	1005.33 kg/m3
292.15 K, x1 = 0.325	974.609 kg/m3
292.15 K, x1 = 0.338	969.8 kg/m3
292.15 K, x1 = 0.382	954.742 kg/m3
292.15 K, x1 = 0.414	944.336 kg/m3
292.15 K, x1 = 0.486	923.052 kg/m3
292.15 K, x1 = 0.488	922.322 kg/m3
292.16 K, x1 = 0.266	996.81 kg/m3
292.16 K, x1 = 0.275	993.303 kg/m3
292.16 K, x1 = 0.3	983.896 kg/m3
292.16 K, x1 = 0.363	961.234 kg/m3
292.16 K, x1 = 0.407	946.608 kg/m3
292.16 K, x1 = 0.546	906.853 kg/m3
292.16 K, x1 = 0.573	900.046 kg/m3
292.16 K, x1 = 0.587	896.411 kg/m3
292.16 K, x1 = 0.615	889.595 kg/m3
292.16 K, x1 = 0.629	886.146 kg/m3
293.15 K, x1 = 0.266	995.587 kg/m3
293.15 K, x1 = 0.338	968.578 kg/m3
293.15 K, x1 = 0.546	905.746 kg/m3
293.16 K, x1 = 0.246	1004.11 kg/m3
293.16 K, x1 = 0.275	992.082 kg/m3
293.16 K, x1 = 0.3	982.679 kg/m3
293.16 K, x1 = 0.325	973.389 kg/m3
293.16 K, x1 = 0.363	960.014 kg/m3
293.16 K, x1 = 0.382	953.524 kg/m3
293.16 K, x1 = 0.407	945.397 kg/m3
293.16 K, x1 = 0.414	943.126 kg/m3
293.16 K, x1 = 0.486	921.889 kg/m3
293.16 K, x1 = 0.488	921.165 kg/m3
293.16 K, x1 = 0.573	898.962 kg/m3
293.16 K, x1 = 0.587	895.341 kg/m3
293.16 K, x1 = 0.615	888.546 kg/m3
293.16 K, x1 = 0.629	885.109 kg/m3
294.15 K, x1 = 0.246	1002.88 kg/m3
294.15 K, x1 = 0.266	994.369 kg/m3
294.15 K, x1 = 0.275	990.864 kg/m3
294.15 K, x1 = 0.3	981.466 kg/m3
294.15 K, x1 = 0.325	972.183 kg/m3
294.15 K, x1 = 0.338	967.375 kg/m3
294.15 K, x1 = 0.363	958.817 kg/m3
294.15 K, x1 = 0.382	952.329 kg/m3
294.15 K, x1 = 0.407	944.215 kg/m3
294.15 K, x1 = 0.414	941.945 kg/m3
294.15 K, x1 = 0.486	920.751 kg/m3
294.15 K, x1 = 0.488	920.031 kg/m3
294.15 K, x1 = 0.546	904.649 kg/m3
294.15 K, x1 = 0.573	897.886 kg/m3
294.15 K, x1 = 0.587	894.274 kg/m3
294.15 K, x1 = 0.615	887.502 kg/m3
294.15 K, x1 = 0.629	884.073 kg/m3
295.15 K, x1 = 0.246	1001.66 kg/m3
295.15 K, x1 = 0.266	993.153 kg/m3
295.15 K, x1 = 0.275	989.651 kg/m3
295.15 K, x1 = 0.3	980.26 kg/m3
295.15 K, x1 = 0.325	970.983 kg/m3
295.15 K, x1 = 0.338	966.179 kg/m3
295.15 K, x1 = 0.363	957.627 kg/m3
295.15 K, x1 = 0.382	951.15 kg/m3
295.15 K, x1 = 0.407	943.045 kg/m3
295.15 K, x1 = 0.414	940.778 kg/m3
295.15 K, x1 = 0.486	919.625 kg/m3
295.15 K, x1 = 0.488	918.905 kg/m3
295.15 K, x1 = 0.546	903.56 kg/m3
295.15 K, x1 = 0.587	893.213 kg/m3
295.15 K, x1 = 0.615	886.458 kg/m3
295.15 K, x1 = 0.629	883.039 kg/m3
295.16 K, x1 = 0.573	896.815 kg/m3
296.15 K, x1 = 0.275	988.439 kg/m3
296.15 K, x1 = 0.338	964.988 kg/m3
296.15 K, x1 = 0.382	949.976 kg/m3
296.15 K, x1 = 0.414	939.619 kg/m3
296.15 K, x1 = 0.615	885.416 kg/m3
296.16 K, x1 = 0.246	1000.44 kg/m3
296.16 K, x1 = 0.266	991.939 kg/m3
296.16 K, x1 = 0.3	979.058 kg/m3
296.16 K, x1 = 0.325	969.786 kg/m3
296.16 K, x1 = 0.363	956.447 kg/m3
296.16 K, x1 = 0.407	941.881 kg/m3
296.16 K, x1 = 0.486	918.503 kg/m3
296.16 K, x1 = 0.488	917.785 kg/m3
296.16 K, x1 = 0.546	902.476 kg/m3
296.16 K, x1 = 0.573	895.746 kg/m3
296.16 K, x1 = 0.587	892.153 kg/m3
296.16 K, x1 = 0.629	882.004 kg/m3
297.15 K, x1 = 0.246	999.224 kg/m3
297.15 K, x1 = 0.266	990.728 kg/m3
297.15 K, x1 = 0.3	977.857 kg/m3
297.15 K, x1 = 0.325	968.596 kg/m3
297.15 K, x1 = 0.338	963.801 kg/m3
297.15 K, x1 = 0.363	955.27 kg/m3
297.15 K, x1 = 0.382	948.809 kg/m3
297.15 K, x1 = 0.407	940.724 kg/m3
297.15 K, x1 = 0.414	938.464 kg/m3
297.15 K, x1 = 0.486	917.385 kg/m3
297.15 K, x1 = 0.488	916.67 kg/m3
297.15 K, x1 = 0.573	894.678 kg/m3
297.15 K, x1 = 0.615	884.375 kg/m3
297.15 K, x1 = 0.629	880.972 kg/m3
297.16 K, x1 = 0.275	987.23 kg/m3
297.16 K, x1 = 0.546	901.393 kg/m3
297.16 K, x1 = 0.587	891.096 kg/m3
298.15 K, x1 = 0.246	998.021 kg/m3
298.15 K, x1 = 0.266	989.517 kg/m3
298.15 K, x1 = 0.275	986.032 kg/m3
298.15 K, x1 = 0.3	976.66 kg/m3
298.15 K, x1 = 0.325	967.413 kg/m3
298.15 K, x1 = 0.338	962.62 kg/m3
298.15 K, x1 = 0.363	954.105 kg/m3
298.15 K, x1 = 0.382	947.647 kg/m3
298.15 K, x1 = 0.407	939.572 kg/m3
298.15 K, x1 = 0.414	937.32 kg/m3 and 937.319 kg/m3
298.15 K, x1 = 0.486	916.279 kg/m3
298.15 K, x1 = 0.488	915.564 kg/m3
298.15 K, x1 = 0.546	900.318 kg/m3
298.15 K, x1 = 0.573	893.615 kg/m3
298.15 K, x1 = 0.587	890.042 kg/m3
298.15 K, x1 = 0.615	883.332 kg/m3
298.15 K, x1 = 0.629	879.94 kg/m3

From the NIST ThermoML archive (doi:10.1016/j.jct.2018.08.035)
